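Dose response: 5 concentrations. Exposure: 48 h. Format: 96-well plates. Endpoint: linear interpolation; highest concentration if not reached. GI50 = concentration required for 50% inhibition of growth.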 The source made the active and inactive calls. No stated cut-off is given here; in the data, active = GI50 up to about 1.1 µM and inactive = higher.
Experiments:
Test in all cases: NCI anticancer screen, dose series, 48 h
SN12C = system: SN12C
UO-31 = system: UO-31
HT-29 = system: HT-29
SF-268 = system: SF-268
SK-MEL-28 = system: SK-MEL-28
BT-549 = system: BT-549
MDA-MB-435 = system: MDA-MB-435
SNB-75 = system: SNB-75
MOLT-4 = system: MOLT-4
ACHN = system: ACHN
SF-295 = system: SF-295
786-0 = system: 786-0
NCI-H460 = system: NCI-H460
OVCAR-8 = system: OVCAR-8
HOP-92 = system: HOP-92
PC-3 = system: PC-3
DU-145 = system: DU-145
T47D = system: T47D
TK-10 = system: TK-10
SF-539 = system: SF-539
OVCAR-3 = system: OVCAR-3
NCI-H23 = system: NCI-H23
NCI-H522 = system: NCI-H522
COLO 205 = system: COLO 205
UACC-257 = system: UACC-257
KM12 = system: KM12
A549 = system: A549
SR = system: SR
HCC 2998 = system: HCC 2998
SW-620 = system: SW-620
HCT-15 = system: HCT-15
UACC-62 = system: UACC-62
SK-MEL-5 = system: SK-MEL-5
MDA-MB-231 = system: MDA-MB-231
SNB-19 = system: SNB-19
CAKI-1 = system: CAKI-1
HCT-116 = system: HCT-116
U-251 = system: U-251
RXF 393 = system: RXF 393
HL-60 = system: HL-60
IGROV-1 = system: IGROV-1
MCF7 = system: MCF7
RPMI-8226 = system: RPMI-8226
M14 = system: M14
NCI-H226 = system: NCI-H226
K562 = system: K562
NCI/ADR-RES = system: NCI/ADR-RES
Malme-3M = system: Malme-3M
CCRF-CEM = system: CCRF-CEM
A498 = system: A498
SK-MEL-2 = system: SK-MEL-2
OVCAR-4 = system: OVCAR-4
OVCAR-5 = system: OVCAR-5
MDA-N = system: MDA-N
LOX IMVI = system: LOX IMVI
HOP-62 = system: HOP-62
SK-OV-3 = system: SK-OV-3
EKVX = system: EKVX
Hs-578T = system: Hs-578T

CCN(CC)CCNc1nc2ccc([N+](=O)[O-])cc2[n+]([O-])n1
GI50 (SN12C): 19 µM (inactive)
GI50 (UO-31): 37.6 µM (inactive)
GI50 (HT-29): 7.91 µM (inactive)
GI50 (SF-268): 41 µM (inactive)
GI50 (SK-MEL-28): 71.6 µM (inactive)
GI50 (BT-549): 73.8 µM (inactive)
GI50 (MDA-MB-435): 16.1 µM (inactive)
GI50 (SNB-75): 29.3 µM (inactive)
GI50 (MOLT-4): 18.9 µM (inactive)
GI50 (ACHN): 36.8 µM (inactive)
GI50 (SF-295): 32.1 µM (inactive)
GI50 (786-0): 20.1 µM (inactive)
GI50 (NCI-H460): 10.4 µM (inactive)
GI50 (OVCAR-8): 13.5 µM (inactive)
GI50 (HOP-92): 32 µM (inactive)
GI50 (PC-3): 20.1 µM (inactive)
GI50 (DU-145): 34.2 µM (inactive)
GI50 (T47D): 20.1 µM (inactive)
GI50 (TK-10): 43.1 µM (inactive)
GI50 (SF-539): 23.3 µM (inactive)
GI50 (OVCAR-3): 30.3 µM (inactive)
GI50 (NCI-H23): 18.3 µM (inactive)
GI50 (NCI-H522): 28.1 µM (inactive)
GI50 (COLO 205): 2.84 µM (inactive)
GI50 (UACC-257): 15.8 µM (inactive)
GI50 (KM12): 26.2 µM (inactive)
GI50 (A549): 21.1 µM (inactive)
GI50 (SR): 18.4 µM (inactive)
GI50 (HCC 2998): 11.4 µM (inactive)
GI50 (SW-620): 16.2 µM (inactive)
GI50 (HCT-15): 11.5 µM
GI50 (UACC-62): 16.6 µM (inactive)
GI50 (SK-MEL-5): 10.5 µM (inactive)
GI50 (MDA-MB-231): 15.5 µM (inactive)
GI50 (SNB-19): 41.4 µM (inactive)
GI50 (CAKI-1): 41.9 µM (inactive)
GI50 (HCT-116): 15.7 µM (inactive)
GI50 (U-251): 21.9 µM (inactive)
GI50 (RXF 393): 46.7 µM (inactive)
GI50 (HL-60): 3.44 µM (inactive)
GI50 (IGROV-1): 15.7 µM (inactive)
GI50 (MCF7): 2.24 µM (inactive)
GI50 (RPMI-8226): 14.7 µM (inactive)
GI50 (M14): 16.2 µM (inactive)
GI50 (NCI-H226): 83 µM (inactive)
GI50 (K562): 13.2 µM (inactive)
GI50 (NCI/ADR-RES): 24.3 µM (inactive)
GI50 (Malme-3M): 1.75 µM (inactive)
GI50 (CCRF-CEM): 27 µM (inactive)
GI50 (A498): 28.4 µM (inactive)
GI50 (SK-MEL-2): 15.2 µM (inactive)
GI50 (OVCAR-4): 13.7 µM (inactive)
GI50 (OVCAR-5): 16 µM (inactive)
GI50 (MDA-N): 14.9 µM (inactive)

O=C(/C=C/c1cccs1)c1ccccc1Cl
GI50 (SN12C): 15.9 µM (inactive)
GI50 (UO-31): 0.615 µM (active)
GI50 (HT-29): 16.9 µM (inactive)
GI50 (LOX IMVI): 12.4 µM (inactive)
GI50 (SF-268): 11.4 µM (inactive)
GI50 (SK-MEL-28): 16.3 µM (inactive)
GI50 (MDA-MB-435): 10.9 µM (inactive)
GI50 (SNB-75): 13.4 µM (inactive)
GI50 (MOLT-4): 5.7 µM (inactive)
GI50 (ACHN): 14.8 µM (inactive)
GI50 (SF-295): 17.8 µM (inactive)
GI50 (786-0): 14.1 µM (inactive)
GI50 (NCI-H460): 15.8 µM (inactive)
GI50 (OVCAR-8): 23.7 µM (inactive)
GI50 (HOP-92): 25.5 µM (inactive)
GI50 (PC-3): 15.4 µM (inactive)
GI50 (DU-145): 12.4 µM (inactive)
GI50 (T47D): 5.96 µM (inactive)
GI50 (TK-10): 16.4 µM (inactive)
GI50 (SF-539): 22.4 µM (inactive)
GI50 (OVCAR-3): 14.1 µM (inactive)
GI50 (NCI-H23): 8.81 µM (inactive)
GI50 (HOP-62): 15.8 µM (inactive)
GI50 (NCI-H522): 2.77 µM (inactive)
GI50 (COLO 205): 18.8 µM (inactive)
GI50 (UACC-257): 17.8 µM (inactive)
GI50 (KM12): 7.31 µM (inactive)
GI50 (A549): 0.417 µM (active)
GI50 (SR): 4.2 µM (inactive)
GI50 (HCC 2998): 16.8 µM (inactive)
GI50 (SW-620): 14.5 µM (inactive)
GI50 (HCT-15): 10.6 µM
GI50 (UACC-62): 13.3 µM (inactive)
GI50 (SK-MEL-5): 16.4 µM (inactive)
GI50 (MDA-MB-231): 19.2 µM (inactive)
GI50 (SNB-19): 15.6 µM (inactive)
GI50 (CAKI-1): 10.6 µM (inactive)
GI50 (HCT-116): 13 µM (inactive)
GI50 (U-251): 13.5 µM (inactive)
GI50 (SK-OV-3): 30.7 µM (inactive)
GI50 (RXF 393): 7.24 µM (inactive)
GI50 (HL-60): 5.81 µM (inactive)
GI50 (EKVX): 15.1 µM (inactive)
GI50 (IGROV-1): 17.6 µM (inactive)
GI50 (MCF7): 4.65 µM (inactive)
GI50 (RPMI-8226): 16 µM (inactive)
GI50 (M14): 1.99 µM (inactive)
GI50 (NCI-H226): 32.8 µM (inactive)
GI50 (K562): 21.3 µM (inactive)
GI50 (NCI/ADR-RES): 15 µM (inactive)
GI50 (Malme-3M): 12.2 µM (inactive)
GI50 (Hs-578T): 14.1 µM (inactive)
GI50 (CCRF-CEM): 8.71 µM (inactive)
GI50 (A498): 10.2 µM (inactive)
GI50 (SK-MEL-2): 20.1 µM (inactive)
GI50 (OVCAR-4): 6.31 µM (inactive)
GI50 (OVCAR-5): 14.6 µM (inactive)
GI50 (MDA-N): 15.6 µM (inactive)
